From ChEMBL document CHEMBL5223103, “FLT3 inhibitors for acute myeloid leukemia: successes, defeats, and emerging paradigms” (RSC Med Chem, 2022) come the findings set out here.

The subject of experiment [1] is BaF3. The experiment is described as follows: Growth inhibition of mouse BAF3 cells harboring FLT3 ITD mutant assessed as reduction in cell inhibition measured after 72 hrs by MTT assay. It is filed as functional.
The subject of experiment [2] is BaF3. The experiment is described as follows: Growth inhibition of mouse BaF3 cells transfected with FLT3-ITD assessed as inhibition of cell growth measured after 48 hrs by MTT assay. It is filed as functional. (In general: Tetrazolium dyes change colour on reduction, which living cells bring about.)
Experiment [3] concerns BaF3. The experiment is described as follows: Growth inhibition of mouse BaF3 cells transfected with FLT3-D835Y assessed as inhibition of cell growth measured after 48 hrs by MTT assay. It is filed as functional.
In experiment [4] the test system is BaF3. Kind of experiment: Growth inhibition of mouse BaF3 cells transfected in FLT3-ITD mutant measured after 72 hrs by CCK8 assay. It is filed as functional.
Experiment [5] concerns MOLM-13. Kind of experiment: Growth inhibition of human MOLM-13 cells by WST-8 assay. The experiment is classed as functional.
In experiment [6] the test system is MOLM-13. The experiment is described as follows: Growth inhibition of human MOLM-13 cells harboring FLT3 resistant inhibitor assessed as growth inhibition. It is filed as functional.
The target of experiment [7] is Macrophage colony-stimulating factor 1 receptor (Homo sapiens, UniProt P07333). Kind of experiment: Inhibition of FMS (unknown origin).
In experiment [8] the test system is MV4-11. Kind of experiment: Growth inhibition of human MV4-11 cells by WST-8 assay. It is filed as functional.
In experiment [9] the test system is BaF3. The experiment is described as follows: Growth inhibition of mouse BaF3 cells transfected in FLT3-TDK mutant measured after 72 hrs by CCK8 assay. It is filed as functional.
Experiment [10] deals with Interleukin-1 receptor-associated kinase 1 (Homo sapiens, UniProt P51617). Kind of experiment: Inhibition of IRAK-1 (unknown origin).
Experiment [11] in a line: Growth inhibition of mouse 32D cells harboring FLT3-ITD mutant assessed as growth inhibition by WST assay. It is filed as functional.
The nature of experiment [12]: Growth inhibition of mouse 32D cells harboring FLT3-ITD-Y842C mutant assessed as growth inhibition WST assay. The experiment is classed as functional.
Experiment [13] deals with THP-1. Kind of experiment: Growth inhibition of human THP-1 cells assessed as reduction in cell growth by cell viability assay. The experiment is classed as functional.
The nature of experiment [14]: Growth inhibition of mouse 32D cells harboring FLT3-D835Y mutant assessed as growth inhibition WST assay. The experiment is classed as functional.
Experiment [15] has as its system MOLM-14. The experiment is described as follows: Growth inhibition of human MOLM-14 cells assessed as reduction in cell growth by cell viability assay. It is filed as functional.
Experiment [16] can be described thus: Growth inhibition of mouse 32D cells harboring FLT3-ITD-F691L mutant assessed as growth inhibition WST assay. It is filed as functional.
Experiment [17] deals with MV4-11. The experiment is described as follows: Growth inhibition of human MV4-11 cells assessed as reduction in cell growth by cell viability assay. The experiment is classed as functional.
The nature of experiment [18]: Growth inhibition of mouse 32D cells harboring FLT3-ITD-Y842H mutant assessed as growth inhibition WST assay. The experiment is classed as functional.
Experiment [19] relates to EOL1. Kind of experiment: Growth inhibition of human EOL1 cells assessed as reduction in cell growth by cell viability assay. The experiment is classed as functional.
Experiment [20] concerns MOLM-13. Kind of experiment: Growth inhibition of human MOLM-13 cells assessed as reduction in cell growth by cell viability assay. It is filed as functional.
For experiment [21], the system named is K562. Kind of experiment: Growth inhibition of human K562 cells assessed as reduction in cell growth by cell viability assay. The experiment is classed as functional.
For experiment [22], the system named is Kasumi 1. Kind of experiment: Growth inhibition of human Kasumi 1 cells assessed as reduction in cell growth by cell viability assay. The experiment is classed as functional.
The nature of experiment [23]: Growth inhibition of mouse 32D cells harboring FLT3-ITD-D835Y mutant assessed as growth inhibition WST assay. It is filed as functional.

Molecules are shown by their SMILES. Bounds are passed on as bounds.

Macrophage colony-stimulating factor 1 receptor, sequence (P07333 whole entry): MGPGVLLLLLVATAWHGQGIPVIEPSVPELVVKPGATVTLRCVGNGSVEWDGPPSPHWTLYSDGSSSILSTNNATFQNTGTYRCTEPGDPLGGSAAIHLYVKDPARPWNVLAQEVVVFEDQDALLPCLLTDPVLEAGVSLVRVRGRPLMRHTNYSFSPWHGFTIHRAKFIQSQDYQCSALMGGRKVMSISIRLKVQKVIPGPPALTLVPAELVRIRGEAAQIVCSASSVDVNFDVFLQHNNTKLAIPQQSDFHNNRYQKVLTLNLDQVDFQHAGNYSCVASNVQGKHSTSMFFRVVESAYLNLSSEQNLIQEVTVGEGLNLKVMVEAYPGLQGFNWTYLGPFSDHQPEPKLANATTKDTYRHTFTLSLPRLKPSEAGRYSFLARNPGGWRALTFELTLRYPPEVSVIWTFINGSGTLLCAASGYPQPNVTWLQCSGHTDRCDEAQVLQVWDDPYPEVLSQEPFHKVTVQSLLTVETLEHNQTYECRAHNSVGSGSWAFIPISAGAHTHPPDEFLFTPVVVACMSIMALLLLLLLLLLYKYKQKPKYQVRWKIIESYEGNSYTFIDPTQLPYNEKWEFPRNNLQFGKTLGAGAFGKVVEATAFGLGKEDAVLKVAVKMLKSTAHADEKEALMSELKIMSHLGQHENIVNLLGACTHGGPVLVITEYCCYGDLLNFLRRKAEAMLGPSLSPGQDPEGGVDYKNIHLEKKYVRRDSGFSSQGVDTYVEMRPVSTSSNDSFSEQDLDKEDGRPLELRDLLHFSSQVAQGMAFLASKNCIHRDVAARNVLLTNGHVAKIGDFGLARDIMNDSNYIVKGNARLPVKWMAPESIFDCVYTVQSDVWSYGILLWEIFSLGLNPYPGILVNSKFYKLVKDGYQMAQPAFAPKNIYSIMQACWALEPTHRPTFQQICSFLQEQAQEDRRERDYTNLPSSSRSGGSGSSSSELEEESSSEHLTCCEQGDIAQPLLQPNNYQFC
Interleukin-1 receptor-associated kinase 1, sequence (P51617 whole entry): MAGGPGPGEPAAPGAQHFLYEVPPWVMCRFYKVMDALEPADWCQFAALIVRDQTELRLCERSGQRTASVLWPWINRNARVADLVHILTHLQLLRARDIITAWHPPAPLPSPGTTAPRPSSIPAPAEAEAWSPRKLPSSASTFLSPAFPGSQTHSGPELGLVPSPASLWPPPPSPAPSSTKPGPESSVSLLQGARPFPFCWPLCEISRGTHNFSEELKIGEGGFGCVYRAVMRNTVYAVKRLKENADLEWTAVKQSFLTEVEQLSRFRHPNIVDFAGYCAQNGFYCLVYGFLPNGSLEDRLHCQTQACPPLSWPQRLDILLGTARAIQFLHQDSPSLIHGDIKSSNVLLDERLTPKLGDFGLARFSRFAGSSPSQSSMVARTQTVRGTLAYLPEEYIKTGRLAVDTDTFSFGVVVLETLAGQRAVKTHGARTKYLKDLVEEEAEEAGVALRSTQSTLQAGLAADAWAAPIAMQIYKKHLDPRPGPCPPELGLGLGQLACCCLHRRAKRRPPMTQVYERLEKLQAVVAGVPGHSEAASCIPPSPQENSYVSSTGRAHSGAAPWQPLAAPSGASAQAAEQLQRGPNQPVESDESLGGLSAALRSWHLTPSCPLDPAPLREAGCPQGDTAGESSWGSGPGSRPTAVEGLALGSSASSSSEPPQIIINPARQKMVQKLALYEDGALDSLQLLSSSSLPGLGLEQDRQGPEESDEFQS

With `C[C@]12O[C@H](C[C@]1(O)CO)n1c3ccccc3c3c4c(c5c6ccccc6n2c5c31)CNC4=O` [LESTAURTINIB], the GI50 in experiment [1] turned out to be 5 nM.
As for `CCc1nc(C(N)=O)c(Nc2ccc(N3CCC(N4CCN(C)CC4)CC3)c(OC)c2)nc1NC1CCOCC1` [GILTERITINIB], the GI50 in experiment [2] came out at 1.8 nM; in [3], 1.6 nM.
Turning to `C1=N/C2=N/c3ccc(OCCN4CCCC4)c(c3)COC/C=C/COCc3cccc(c3)C(=C1)N2` [PACRITINIB], the GI50 in experiment [4] was 133 nM; in [5], 73 nM; in [6] it was 173 nM; in [8], 33 nM; in experiment [9] it was below 434 nM. Moreover, the values for the IC50 in [7] and in experiment [10] were 39.5 nM and 13.6 nM, respectively.
As to `CCCNc1nc(Nc2ccc(C#N)cc2)ncc1C#CCCCNC(=O)[C@H](C)N(C)C(=O)/C=C/CN(C)C` [FF-10101], the GI50 in [11] was 1.9 nM; in experiment [12] it was 3.5 nM; in experiment [13], above 1000 nM; in experiment [14] it was 1.1 nM; in [15] it was 1.5 nM; in [16] it was 10 nM. For the same compound, the concentration for 50% growth inhibition (GI50) is 0.83 nM in [17]; 5.3 nM in experiment [18]; 72 nM in experiment [19]; 1.1 nM in experiment [20]; above 1000 nM in experiment [21]; 26 nM in [22]. In experiment [23], the GI50 was 0.81 nM.

Usually GI50 stands for the concentration giving 50% growth inhibition. By IC50 is commonly meant the concentration at which inhibition is half-maximal. High values mean weaker potency in that assay, low ones greater potency in that assay.
